# Assay results published in article PMC10992382, “Discovery of a readily heterologously expressed Rubisco from the deep sea with potential for CO2 capture” (Bioresources and Bioprocessing, 2021).
# Target: T1, 7002 Rubisco (Picosynechococcus sp. PCC 7002, UniProt Q44176)
# T1 construct: gene cbbL; C-terminal His6 tag on large subunit; large and small subunits co-expressed with chaperone RbcX from pET30a in E. coli BL21(DE3); hexadecamer; with Ribulose bisphosphate carboxylase small subunit
# Assay: […]-CABP active-site binding assay
# Details: labelled compound; active-site titration only
# T1 sequence (Q44176 whole entry): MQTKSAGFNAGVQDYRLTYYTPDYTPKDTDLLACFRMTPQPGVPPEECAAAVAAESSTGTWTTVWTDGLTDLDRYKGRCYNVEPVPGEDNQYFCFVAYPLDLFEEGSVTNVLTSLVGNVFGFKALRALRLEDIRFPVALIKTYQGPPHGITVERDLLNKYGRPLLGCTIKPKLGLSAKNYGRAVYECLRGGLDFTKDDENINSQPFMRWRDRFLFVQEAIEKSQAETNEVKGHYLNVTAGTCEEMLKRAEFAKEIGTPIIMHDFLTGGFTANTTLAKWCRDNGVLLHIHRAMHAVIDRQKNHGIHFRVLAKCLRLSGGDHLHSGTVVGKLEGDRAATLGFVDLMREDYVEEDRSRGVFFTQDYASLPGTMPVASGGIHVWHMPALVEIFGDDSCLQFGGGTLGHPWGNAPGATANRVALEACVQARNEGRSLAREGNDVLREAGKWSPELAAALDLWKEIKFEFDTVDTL
# T1 sequence (Q44178 whole entry, further chain): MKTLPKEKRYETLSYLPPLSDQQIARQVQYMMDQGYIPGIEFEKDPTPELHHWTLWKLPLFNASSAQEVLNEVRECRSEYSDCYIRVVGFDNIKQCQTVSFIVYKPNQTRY
compound,measurement,value
"O=C(O)[C@@](O)(COP(=O)(O)O)[C@H](O)[C@H](O)COP(=O)(O)O [CABP, 2-carboxyarabinitol-1,5-diphosphate]",14C-CABP active-site binding assay,Active sites of Rubisco in purified enzymes were determined as reported
